Tested on: SK-BR-3
Experiment: Antiproliferative activity against human SKBR3 cells after 48 to 72 hrs by MTT assay
Type: functional, cell-based
Details: not given

Row | Compound | IC50
1 | CCCCCCN(c1ccc(NC(=O)C2CCCCC2)cc1OCc1cc(C)ccc1C)S(C)(=O)=O | 81.7 µM
2 | Cc1ccc(C)c(COc2cc(NC(=O)C3CCCCC3)ccc2NS(C)(=O)=O)c1 | 83.7 µM
3 | Cc1ccc(C)c(COc2cc(NC(=O)C3CCCCC3)ccc2N(CCCCCCNC(=O)c2ccc3ccccc3c2)S(C)(=O)=O)c1 | 45.3 µM

Now from value to compound:

Row | IC50 | Compound
4 | 6 µM | CCCCCC(=O)NCCCCCCN(c1ccc(NC(=O)C2CCCCC2)cc1OCc1cc(C)ccc1C)S(C)(=O)=O
5 | 2.21 µM | Cc1ccc(C)c(COc2cc(NC(=O)C3CCCCC3)ccc2N(CCCCCCNC(=O)CCCC[C@H]2SC[C@H]3NC(=O)N[C@H]32)S(C)(=O)=O)c1
6 | 13 µM | COCCOCCN(c1ccc(NC(=O)C2CCCCC2)cc1OCc1cc(C)ccc1C)S(C)(=O)=O

Tested on: SK-BR-3
Experiment: Antiproliferative activity against human SKBR3 cells at 100 uM after 48 to 72 hrs by MTT assay
Type: cell-based
Details: sk-br-3, 100 µM

Row | Compound | Activity
7 | O=C(O)CCCC[C@@H]1SC[C@@H]2NC(=O)N[C@@H]21 [BIOTIN] | Non-toxic
